Calls of active or inactive are those of the source. No cut-off for these calls is given here.
Experiments:
Mus musculus [1] = assay: Compound was evaluated for the dose required for protection against MES-induced seizures after 4 hours of intraperitoneal administration; Inactive; type: functional, organism-based
Mus musculus [2] = assay: Compound was evaluated for the dose required for protection against scMET-induced seizures after 4 hours of intraperitoneal administration; Inactive; type: functional, organism-based
Mus musculus [3] = assay: Compound was evaluated for the neuro toxicity up to 4 hours after doses of <=300 mg/kg administered intraperitoneally; No toxicity; type: organism-based; conditions: in vivo, ip
[4] = Compound was evaluated for the biliary excretion in the anesthetized rats in 6 hours after intravenous doses 1 mg/kg; type: ADME, organism-based; set-up: dose 1 mg/kg, route intravenous; conditions: rat, bile, read-out: Excretion
[5] = Compound was evaluated for the biliary excretion in the anesthetized rats in 6 hours after intravenous doses 10 mg/kg; type: ADME, organism-based; set-up: dose 10 mg/kg, route intravenous; conditions: rat, bile, read-out: Excretion
[6] = Compound was evaluated for the biological half-life in rat after a dose of 10 mg/kg given intravenously; type: ADME, organism-based; set-up: dose 10 mg/kg, route intravenous; conditions: in vivo, iv
Mus musculus [7] = assay: Compound was evaluated for the dose required for protection against MES-induced seizures after 4 hours of intraperitoneal administration; type: functional
Mus musculus [8] = assay: Compound was evaluated for the dose required for protection against scMET-induced seizures after 4 hours of intraperitoneal administration; type: functional
Mus musculus [9] = assay: Compound was evaluated for the biological half-life in mouse after a dose of 40 mg/kg given intraperitoneally; conditions: in vivo, ip

| dose excreted at 6 h [4] [%] | dose excreted at 6 h [5] [%] | half-life [6] [min] | T1/2 (Mus musculus [9]) [min] | Compound | Activity (Mus musculus [1]) | Activity (Mus musculus [2]) | Neurotoxicity (Mus musculus [3]) | Activity (Mus musculus [7]) [mmol/kg] | Activity (Mus musculus [8]) |
| --- | --- | --- | --- | --- | --- | --- | --- | --- | --- |
|  |  |  |  | Cc1ccc(C2(c3cccc(C(F)(F)F)c3)NC(=O)NC2=O)cc1 (stereo in doubt; 7) | inactive | inactive | No toxicity |  |  |
|  |  |  |  | Cc1ccc(C2(c3ccc(C(F)(F)F)cc3)NC(=O)NC2=O)cc1 (stereo not drawn) | inactive | inactive | No toxicity |  |  |
|  |  |  |  | Cc1cccc(C2(c3ccc(C(F)(F)F)cc3)NC(=O)NC2=O)c1 (stereo not drawn) | inactive | inactive | No toxicity |  |  |
|  |  |  |  | O=C1NC(=O)C(c2ccc(C(F)(F)F)cc2)(c2cccc(C(F)(F)F)c2)N1 (stereo not drawn) | inactive | inactive | No toxicity |  |  |
| 54 | 28 | 30 | 990 | O=C1NC(=O)C(c2ccccc2)(c2ccccc2)N1 [PHENYTOIN] |  |  |  | 0.038 | inactive |

— ChEMBL document CHEMBL1121659 (J Med Chem, 1981)
